Type in all cases: physicochemical
Data set [1] is described as follows: Protonation constants of the ligand by spectrophotometric titration. Conditions: free ligand; for PKa: IAM.
A short description of data set [2]: Stability constants of the Eu complex by spectrophotometric titration. Here is the method: FIG. 3 Spectrophotometric titration of a 1:1 ratio Eu:H22MeTIAM (9A): I=0.1, 25° C., optical path=1 cm.
(§1) The stability constants of the lanthanide complexes formed with the ligand H22TAMDIAM(9A) were estimated through spectrophotometric titrations.
(§2) The stability constants of the Eu and Tb complexes formed with the ligand H22TAMDIAM (9A) have been calculated form these experiments and the results are reported in the table.

Data set [3] can be described thus: Stability constants of the Tb complex by spectrophotometric titration.
Text: as §1, §2

Consider H4H(2,2)TIAM [Compound 9A], for which the “Proton Affinity Log […]011” value in data set [1] (cumulative protonation constant, 1 proton (phenolic)) is reported as 8.58(2). For the same substance, the “Proton Affinity Log […]012” value in data set [1] (cumulative protonation constant, 2 protons) was 15.17(3). The “Proton Affinity Log […]013” value in data set [1] (cumulative protonation constant, 3 protons) is reported as 20.38(4). Also, the “Proton Affinity Log […]014” value in data set [1] (cumulative protonation constant, 4 protons) is given as 24.46(6). Moreover, the PKa in data set [1] (first phenolic proton (line Log […]011)) is listed as 8.58; in data set [1] (fourth phenolic proton (line Log […]014)), 4.08; in data set [1] (second phenolic proton (line Log […]012)), 6.59; in data set [1] (third phenolic proton (line Log […]013)), 5.21. Further, the “Log[…]11-1” value in data set [2] (1:1 Eu:ligand, I=0.1, 25° C.) was 11.04(2); in data set [3], 12.60(7). In addition, the “Log[…]11-2” value in data set [2] (1:1 Eu:ligand, I=0.1, 25° C.) is 1.98(10); in data set [3], 3.62(9). The “Log[…]110” value in data set [2] (1:1 Eu:ligand, I=0.1, 25° C.) is listed as 17.29(1); in data set [3], 17.85(3). For the same substance, the pKa stood at 6.25 in data set [2] (line Log[…]11-1), 9.06 in data set [2] (line Log[…]11-2), 5.25 in data set [3] (line Log[…]11-1) and 8.98 in data set [3] (line Log[…]11-2). In addition, the pM entry in data set [2] (n = 3) is listed as “Eu, pM = 18.2, n = 3”; in data set [3] (n = 3) it was “Tb, pM = 19.7,n = 3”.

For orientation: pKa means the pH at which an ionisable group is half protonated.
